Patent publication US20110263454A1, “Methods of Identifying Functional Characteristics of Promoters, Transcription Modifying Proteins and Transcription Modulating Agents” (Salk Institute for Biological Studies, priority 2008, published 2011)

Key:
mPgc1b promoter = assay: NHR-promoter luciferase screen, mPgc1b promoter; type: cell-based, mouse; settings: for Luc. act., normalized to lacZ / Normalized Luc. act., normalized to control: PGC1b promoter reporter, co-transfected HR, without or with its ligand; for Normalized Luc. act., normalized to control: relative to control; for luciferase activity normalized to lacZ activity and to a control, mPgc1b: mPgc1b promoter-luciferase, CV-1 cells, NHR +/- ligand, control = 1.00
Protocol: (§1) Briefly, there were co-expressed 50 ng of each NHR/NHR homodimer or NHR/RXR heterodimer with 100 ng promoter/luciferase construct and 50 ng of LacZ (as a control for transfection efficiency) in CV-1 cells using Fugene HD (Roche) as a transfection reagent (alternatively or additionally, a CMV-YFP construct can be used as a transfection control). Each of the nuclear hormone receptors that were used in these experiments was cloned into a pcDNA3.1 vector and comprised a C-terminally linked V5H6 tag.
(§2) The promoters that facilitate transcription of the indicated gene products that were tested using the protocols described herein are listed in the first row of the table. The nuclear hormone receptors and, where applicable, ligands that were assayed for their transcriptional effects on the promoters are listed in the first column of the table. The data represent the luciferase activity of each sample normalized to both the lacZ activity of that sample and to a control, e.g., no NHR or ligand, as customary in the art. As described previously, these normalizations allow the transcriptional activity of each reporter cell to be compared to other samples.
(§3) Tables 7-40 show the transcriptional effects of the hormone receptors, and, where applicable, ligands (orphan receptors are screened without ligand), on each individual promoter. […] The control data of each table are shown in their last rows.

MCP-1 promoter = assay: NHR-promoter luciferase screen, MCP-1 promoter; type: cell-based; settings: for Normalized Luc. act., normalized to control / Luc. act., normalized to lacZ: MCP-1 promoter reporter; for Normalized Luc. act., normalized to control: HR without or with its ligand, relative to control; for Luc. act., normalized to lacZ: hormone receptor (HR) without or with its ligand; for mMCP-1 promoter reporter activity: transcription factor +/- ligand, control = 1.00
Protocol: (§4) The use, feasibility, and reproducibility of the functional NHR-promoter screen in a 48-well format have been tested validated. Briefly, there were co-expressed 50 ng of each NHR/NHR homodimer or NHR/RXR heterodimer with 100 ng promoter/luciferase construct and 50 ng of LacZ (as a control for transfection efficiency) in CV-1 cells using Fugene HD (Roche) as a transfection reagent (alternatively or additionally, a CMV-YFP construct can be used as a transfection control). Each of the nuclear hormone receptors that were used in these experiments was cloned into a pcDNA3.1 vector and comprised a C-terminally linked V5H6 tag. Twenty-four hours after transfection, appropriate ligands were added, where applicable, (see Table 5 for various ligands and concentrations and after 48 hrs, samples were assayed for luciferase and LacZ activity. To measure for luciferase activity 15 ul of sample was added to 30 ul of luciferase buffer (20 mM tricine, 1.07 mM MgCarbonate, 2.67 mM MgSulfate, 0.1 mM Naz-EDTA, 5 mM DTT, 5 mM ATP, 0.15 mg/ml CoA, 0.5 mM Luciferin), mixed briefly, and run in a Perkin Elmer Victor 5 luminometer. Thus, the functional NHR-promoter screen was used to observe the transcriptional activity of 29 promoters from various physiological pathways including inflammation, lipid and sugar metabolism, cholesterol transport, xenobiotic metabolism, and circadian rhythm.
as §2, §3

hCYP3A4 promoter = assay: NHR-promoter luciferase screen, hCYP3A4 promoter; type: cell-based, human; settings: for Luc. act., normalized to lacZ / Normalized Luc. act., normalized to control: CYP3A4 promoter, HR/ligand component; for hCYP3A4 promoter reporter activity: transcription factor +/- ligand, control = 1.00
Protocol: as §1, §2, §3

mDio1 promoter = assay: NHR-promoter luciferase screen, mDio1 promoter; type: cell-based, mouse; settings: for Luc. act., normalized to lacZ / Normalized Luc. act., normalized to control: Dio1, HR component without or with its ligand; for mDio1 promoter reporter activity: transcription factor +/- ligand, control = 1.00
Protocol: as §4, §2, §3

mDio2 promoter = assay: NHR-promoter luciferase screen, mDio2 promoter; type: cell-based, mouse; settings: for Luc. act., normalized to lacZ / Normalized Luc. act., normalized to control: Dio2, HR component without or with its ligand; for mDio2 promoter reporter activity: transcription factor +/- ligand, control = 1.00
Protocol: as §4, §2, §3

mABCA1 promoter = assay: NHR-promoter luciferase screen, mABCA1 promoter; type: cell-based, mouse; settings: for Luc. act., normalized to lacZ / Normalized Luc. act., normalized to control: ABCA1 promoter, hormone receptor with or without its ligand; for Normalized Luc. act., normalized to control: relative to control; for mABCA1 promoter reporter activity: transcription factor +/- ligand, control = 1.00
Protocol: as §4, §2, §3

In the case of “PPARa: Peroxisome proliferator activated receptor α (NR1C1), cDNA driver”, the “Luc. act., normalized to lacZ” value (mPgc1b promoter) is reported as 9.33, the “Normalized Luc. act., normalized to control” value (mPgc1b promoter) is reported as 0.8 and the “luciferase activity normalized to lacZ activity and to a control, mPgc1b” value (from here on “luciferase activity normalized”) (mPgc1b promoter) is reported as 0.79. For the same substance, the “Normalized Luc. act., normalized to control” value (MCP-1 promoter) was 1.1, the “Luc. act., normalized to lacZ” value (MCP-1 promoter) was 121.8 and the “mMCP-1 promoter reporter activity” value (MCP-1 promoter) was 1.14. The “Luc. act., normalized to lacZ” value (hCYP3A4 promoter) was 3.4, the “Normalized Luc. act., normalized to control” value (hCYP3A4 promoter) was 0.8 and the “hCYP3A4 promoter reporter activity” value (hCYP3A4 promoter) was 0.76. The “Luc. act., normalized to lacZ” value (mDio1 promoter) was 4.7, the “Normalized Luc. act., normalized to control” value (mDio1 promoter) was 1.1 and the “mDio1 promoter reporter activity” value (mDio1 promoter) was 1.06. For the same substance, the “Luc. act., normalized to lacZ” value (mDio2 promoter) was 23.0, the “Normalized Luc. act., normalized to control” value (mDio2 promoter) was 1.5 and the “mDio2 promoter reporter activity” value (mDio2 promoter) was 1.46. For the same substance, the “Luc. act., normalized to lacZ” value (mABCA1 promoter) was 10.7, the “Normalized Luc. act., normalized to control” value (mABCA1 promoter) was 1.9 and the “mABCA1 promoter reporter activity” value (mABCA1 promoter) was 1.90.

“PPARg: Peroxisome proliferator activated receptor γ (NR1C3), cDNA driver” was tested, and the “Luc. act., normalized to lacZ” value (mPgc1b promoter) was 11.35, the “Normalized Luc. act., normalized to control” value (mPgc1b promoter) was 1.0 and the “luciferase activity normalized” value (mPgc1b promoter) was 0.96. The “Normalized Luc. act., normalized to control” value (MCP-1 promoter) was 1.4, the “Luc. act., normalized to lacZ” value (MCP-1 promoter) was 146.1 and the “mMCP-1 promoter reporter activity” value (MCP-1 promoter) was 1.36. For the same substance, the “Luc. act., normalized to lacZ” value (hCYP3A4 promoter) was 4.7, the “Normalized Luc. act., normalized to control” value (hCYP3A4 promoter) was 1.1 and the “hCYP3A4 promoter reporter activity” value (hCYP3A4 promoter) was 1.06. For the same substance, the “Luc. act., normalized to lacZ” value (mDio1 promoter) was 9.9, the “Normalized Luc. act., normalized to control” value (mDio1 promoter) was 2.2 and the “mDio1 promoter reporter activity” value (mDio1 promoter) was 2.23. The “Luc. act., normalized to lacZ” value (mDio2 promoter) was 35.5, the “Normalized Luc. act., normalized to control” value (mDio2 promoter) was 2.3 and the “mDio2 promoter reporter activity” value (mDio2 promoter) was 2.26. For the same substance, the “Luc. act., normalized to lacZ” value (mABCA1 promoter) was 14.4, the “Normalized Luc. act., normalized to control” value (mABCA1 promoter) was 2.6 and the “mABCA1 promoter reporter activity” value (mABCA1 promoter) was 2.56.

In the case of “RXRa: Retinoic X Receptor α (NR2B1), cDNA driver”, the “Luc. act., normalized to lacZ” value (mPgc1b promoter) is reported as 8.6, the “Normalized Luc. act., normalized to control” value (mPgc1b promoter) is reported as 0.7 and the “luciferase activity normalized” value (mPgc1b promoter) is reported as 0.72. For the same substance, the “Normalized Luc. act., normalized to control” value (MCP-1 promoter) was 1.6, the “Luc. act., normalized to lacZ” value (MCP-1 promoter) was 170.8 and the “mMCP-1 promoter reporter activity” value (MCP-1 promoter) was 1.60. For the same substance, the “Luc. act., normalized to lacZ” value (hCYP3A4 promoter) was 1.5, the “Normalized Luc. act., normalized to control” value (hCYP3A4 promoter) was 0.3 and the “hCYP3A4 promoter reporter activity” value (hCYP3A4 promoter) was 0.35. The “Luc. act., normalized to lacZ” value (mDio1 promoter) was 5.5, the “Normalized Luc. act., normalized to control” value (mDio1 promoter) was 1.2 and the “mDio1 promoter reporter activity” value (mDio1 promoter) was 1.24. For the same substance, the “Luc. act., normalized to lacZ” value (mDio2 promoter) was 18.6, the “Normalized Luc. act., normalized to control” value (mDio2 promoter) was 1.2 and the “mDio2 promoter reporter activity” value (mDio2 promoter) was 1.18. The “Luc. act., normalized to lacZ” value (mABCA1 promoter) was 8.7, the “Normalized Luc. act., normalized to control” value (mABCA1 promoter) was 1.6 and the “mABCA1 promoter reporter activity” value (mABCA1 promoter) was 1.56.

In the case of “SF-1: Steroidogenic Factor 1 (NR5A1, SF1), cDNA driver”, the “Luc. act., normalized to lacZ” value (mPgc1b promoter) is reported as 33.2, the “Normalized Luc. act., normalized to control” value (mPgc1b promoter) is reported as 2.8 and the “luciferase activity normalized” value (mPgc1b promoter) is reported as 2.80. The “Normalized Luc. act., normalized to control” value (MCP-1 promoter) was 2.0, the “Luc. act., normalized to lacZ” value (MCP-1 promoter) was 217.9 and the “mMCP-1 promoter reporter activity” value (MCP-1 promoter) was 2.04. The “Luc. act., normalized to lacZ” value (hCYP3A4 promoter) was 10.6, the “Normalized Luc. act., normalized to control” value (hCYP3A4 promoter) was 2.4 and the “hCYP3A4 promoter reporter activity” value (hCYP3A4 promoter) was 2.39. For the same substance, the “Luc. act., normalized to lacZ” value (mDio1 promoter) was 19.8, the “Normalized Luc. act., normalized to control” value (mDio1 promoter) was 4.5 and the “mDio1 promoter reporter activity” value (mDio1 promoter) was 4.45. For the same substance, the “Luc. act., normalized to lacZ” value (mDio2 promoter) was 63.2, the “Normalized Luc. act., normalized to control” value (mDio2 promoter) was 4.0 and the “mDio2 promoter reporter activity” value (mDio2 promoter) was 4.02. The “Luc. act., normalized to lacZ” value (mABCA1 promoter) was 34.4, the “Normalized Luc. act., normalized to control” value (mABCA1 promoter) was 6.1 and the “mABCA1 promoter reporter activity” value (mABCA1 promoter) was 6.12.

In the case of “TLX: Tailless (homolog of drosophila) (NR2E1), cDNA driver”, the “Luc. act., normalized to lacZ” value (mPgc1b promoter) is reported as 4.5, the “Normalized Luc. act., normalized to control” value (mPgc1b promoter) is reported as 0.4 and the “luciferase activity normalized” value (mPgc1b promoter) is reported as 0.38. The “Normalized Luc. act., normalized to control” value (MCP-1 promoter) was 0.6, the “Luc. act., normalized to lacZ” value (MCP-1 promoter) was 60.9 and the “mMCP-1 promoter reporter activity” value (MCP-1 promoter) was 0.57. The “Luc. act., normalized to lacZ” value (hCYP3A4 promoter) was 4.0, the “Normalized Luc. act., normalized to control” value (hCYP3A4 promoter) was 0.9 and the “hCYP3A4 promoter reporter activity” value (hCYP3A4 promoter) was 0.90. The “Luc. act., normalized to lacZ” value (mDio1 promoter) was 8.4, the “Normalized Luc. act., normalized to control” value (mDio1 promoter) was 1.9 and the “mDio1 promoter reporter activity” value (mDio1 promoter) was 1.88. The “Luc. act., normalized to lacZ” value (mDio2 promoter) was 9.5, the “Normalized Luc. act., normalized to control” value (mDio2 promoter) was 0.6 and the “mDio2 promoter reporter activity” value (mDio2 promoter) was 0.60. For the same substance, the “Luc. act., normalized to lacZ” value (mABCA1 promoter) was 21.8, the “Normalized Luc. act., normalized to control” value (mABCA1 promoter) was 3.9 and the “mABCA1 promoter reporter activity” value (mABCA1 promoter) was 3.88.

In the case of “VDR: Vitamin D Receptor (NR1I1), cDNA driver”, the “Luc. act., normalized to lacZ” value (mPgc1b promoter) is reported as 6.85, the “Normalized Luc. act., normalized to control” value (mPgc1b promoter) is reported as 0.6 and the “luciferase activity normalized” value (mPgc1b promoter) is reported as 0.58. For the same substance, the “Normalized Luc. act., normalized to control” value (MCP-1 promoter) was 2.0, the “Luc. act., normalized to lacZ” value (MCP-1 promoter) was 215.8 and the “mMCP-1 promoter reporter activity” value (MCP-1 promoter) was 2.02. For the same substance, the “Luc. act., normalized to lacZ” value (hCYP3A4 promoter) was 5.1, the “Normalized Luc. act., normalized to control” value (hCYP3A4 promoter) was 1.2 and the “hCYP3A4 promoter reporter activity” value (hCYP3A4 promoter) was 1.15. For the same substance, the “Luc. act., normalized to lacZ” value (mDio1 promoter) was 7.6, the “Normalized Luc. act., normalized to control” value (mDio1 promoter) was 1.7 and the “mDio1 promoter reporter activity” value (mDio1 promoter) was 1.71. The “Luc. act., normalized to lacZ” value (mDio2 promoter) was 23.7, the “Normalized Luc. act., normalized to control” value (mDio2 promoter) was 1.5 and the “mDio2 promoter reporter activity” value (mDio2 promoter) was 1.51. The “Luc. act., normalized to lacZ” value (mABCA1 promoter) was 15.2, the “Normalized Luc. act., normalized to control” value (mABCA1 promoter) was 2.7 and the “mABCA1 promoter reporter activity” value (mABCA1 promoter) was 2.71.
